Key:
KB = assay: Cytotoxicity against human KB cells at 3.2 ug/mL after 48 hrs by XTT assay; assay type: functional
[1] = ABTS radical scavenging activity assessed as trolox equivalents by TEAC assay; assay type: physicochemical
[2] = molecular target: Xanthine dehydrogenase/oxidase (Homo sapiens, UniProt P47989); assay: Inhibition of xanthine oxidase by spectrophotometry
Sequence of Xanthine dehydrogenase/oxidase (P47989 whole entry): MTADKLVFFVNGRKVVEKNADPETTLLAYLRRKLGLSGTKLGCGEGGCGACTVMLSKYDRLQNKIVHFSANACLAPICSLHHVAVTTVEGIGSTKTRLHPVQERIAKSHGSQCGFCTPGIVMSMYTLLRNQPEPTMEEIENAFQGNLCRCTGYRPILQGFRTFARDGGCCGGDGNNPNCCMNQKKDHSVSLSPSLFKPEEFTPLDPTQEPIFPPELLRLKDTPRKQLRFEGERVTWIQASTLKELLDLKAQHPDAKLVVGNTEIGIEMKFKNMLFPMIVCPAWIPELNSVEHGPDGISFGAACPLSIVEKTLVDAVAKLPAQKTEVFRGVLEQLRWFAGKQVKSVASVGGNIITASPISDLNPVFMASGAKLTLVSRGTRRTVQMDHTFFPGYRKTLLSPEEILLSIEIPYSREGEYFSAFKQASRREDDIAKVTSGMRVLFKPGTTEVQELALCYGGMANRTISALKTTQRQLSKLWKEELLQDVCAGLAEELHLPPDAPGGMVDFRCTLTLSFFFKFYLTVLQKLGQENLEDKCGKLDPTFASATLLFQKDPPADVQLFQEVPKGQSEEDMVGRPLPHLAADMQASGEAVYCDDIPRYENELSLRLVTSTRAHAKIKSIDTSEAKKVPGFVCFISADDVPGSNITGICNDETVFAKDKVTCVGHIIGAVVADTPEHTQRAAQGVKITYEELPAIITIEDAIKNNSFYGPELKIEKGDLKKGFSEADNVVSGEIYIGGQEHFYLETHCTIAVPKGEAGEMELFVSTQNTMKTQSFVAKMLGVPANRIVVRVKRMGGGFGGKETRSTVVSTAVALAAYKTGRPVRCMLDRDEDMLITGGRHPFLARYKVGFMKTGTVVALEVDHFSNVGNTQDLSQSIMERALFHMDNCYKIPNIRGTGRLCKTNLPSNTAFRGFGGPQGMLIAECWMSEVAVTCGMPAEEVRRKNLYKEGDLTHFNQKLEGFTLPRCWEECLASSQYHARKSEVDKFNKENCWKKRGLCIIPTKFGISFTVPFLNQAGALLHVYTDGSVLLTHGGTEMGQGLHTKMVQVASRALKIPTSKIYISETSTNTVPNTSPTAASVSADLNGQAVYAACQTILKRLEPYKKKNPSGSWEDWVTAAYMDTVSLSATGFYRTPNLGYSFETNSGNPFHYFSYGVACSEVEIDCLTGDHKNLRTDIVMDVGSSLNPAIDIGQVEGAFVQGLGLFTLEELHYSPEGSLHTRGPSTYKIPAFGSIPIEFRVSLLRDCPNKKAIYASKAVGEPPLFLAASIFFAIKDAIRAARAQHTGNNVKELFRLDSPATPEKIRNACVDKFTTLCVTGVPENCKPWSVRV

Activity [1]: 0.341 | IC50 [2]: 16.5 µM
SMILES: Cn1cc2c3c1C(=O)C(NCCc1ccc(O)cc1)=CC3=[N+](C)CC2.[Cl-] [MAKALUVAMINE P]
inhibition at 3.2 µg/mL (KB): 64%

Source: ChEMBL document CHEMBL1156367, “Makaluvamine P, a new cytotoxic pyrroloiminoquinone from Zyzzya cf. fuliginosa” (J Nat Prod, 2001)
